Like-named read-outs stand apart in the source and are kept apart here.
Molecular target: T1, Zcchc11 enzyme (Homo sapiens, UniProt Q5TAX3)
T1 construct: made in house; host or cells: HEK293 cells (Zcchc11); E. coli Rosetta II (LIN28A)
T1 sequence (Q5TAX3 212-1420): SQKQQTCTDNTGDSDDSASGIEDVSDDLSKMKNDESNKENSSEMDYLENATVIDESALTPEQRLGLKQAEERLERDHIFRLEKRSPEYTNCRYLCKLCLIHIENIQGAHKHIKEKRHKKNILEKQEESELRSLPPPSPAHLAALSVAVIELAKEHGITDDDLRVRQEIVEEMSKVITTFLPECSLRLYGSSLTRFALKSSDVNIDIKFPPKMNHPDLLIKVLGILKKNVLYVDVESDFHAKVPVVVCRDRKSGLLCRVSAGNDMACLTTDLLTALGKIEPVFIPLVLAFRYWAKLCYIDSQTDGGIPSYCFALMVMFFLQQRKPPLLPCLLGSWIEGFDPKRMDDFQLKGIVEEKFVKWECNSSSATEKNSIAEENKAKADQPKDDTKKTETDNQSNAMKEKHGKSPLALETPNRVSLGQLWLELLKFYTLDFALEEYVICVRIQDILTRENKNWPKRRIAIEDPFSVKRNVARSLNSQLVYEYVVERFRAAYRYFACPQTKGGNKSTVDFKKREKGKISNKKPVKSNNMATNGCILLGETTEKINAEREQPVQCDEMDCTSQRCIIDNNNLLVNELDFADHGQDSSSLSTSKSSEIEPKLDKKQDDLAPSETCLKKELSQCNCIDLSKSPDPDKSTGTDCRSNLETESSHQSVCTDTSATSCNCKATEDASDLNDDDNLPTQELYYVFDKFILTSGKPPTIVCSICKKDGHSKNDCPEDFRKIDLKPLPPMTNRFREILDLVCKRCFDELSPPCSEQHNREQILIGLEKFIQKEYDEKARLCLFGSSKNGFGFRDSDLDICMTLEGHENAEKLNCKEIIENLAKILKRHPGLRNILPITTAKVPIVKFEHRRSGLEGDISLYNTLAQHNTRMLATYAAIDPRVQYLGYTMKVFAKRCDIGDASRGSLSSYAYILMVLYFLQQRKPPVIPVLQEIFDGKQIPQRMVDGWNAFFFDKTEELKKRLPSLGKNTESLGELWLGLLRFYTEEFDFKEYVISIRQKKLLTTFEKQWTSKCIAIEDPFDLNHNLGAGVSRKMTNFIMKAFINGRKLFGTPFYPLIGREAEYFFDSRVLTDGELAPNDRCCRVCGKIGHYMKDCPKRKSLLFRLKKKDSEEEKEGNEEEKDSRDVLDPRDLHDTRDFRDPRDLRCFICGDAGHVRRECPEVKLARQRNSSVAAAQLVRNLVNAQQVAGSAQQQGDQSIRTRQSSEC
Assay: TUTase assay (Zcchc11 assay, Lin28a-dependent polyuridylation of pre-let-7)
Type: biochemical
Conditions: read-out: Potency Lin28a-dep Z11 IC50
How it was run: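 LIN28A (10 nM) in pH 7.3 HEPES/KCl/MgCl2/DTT buffer was mixed with serially diluted compound, then 0.2 nM truncated human Zcchc11 and 2 nM labeled pre-let-7 were added for 30 min at room temperature. UTP (5 uM) and quench probe (4 nM) then started the reaction. Linear early rates gave IC50 values.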

[1] = Lin28a-dependent Zcchc11 (Z11) TUTase activity
[2] = LIN28A 10 nM, Zcchc11 0.2 nM, 5′-fluorescein pre-let-7 miRNA 2 nM, UTP 5 uM, room temperature, 30 minutes pre-incubation
[3] = Lin28a-dependent Zcchc11 (Z11) TUTase assay

Row | Structure (SMILES) | IC50 [1] [nM] | also measured
1 | CN(C)C1CN(c2ccc(-n3cc(C(=O)O)c(=O)c4cc(Cl)c(N5CC6CC5(COc5ncccc5Cl)C6)cc43)cn2)C1 [Compound 221, 6-chloro-7-(1-[[(3-chloropyridin-2-yl)oxy]methyl]-2-azabicyclo [2.1.1]hexan-2-yl)-1-[6-[3-(dimethyl-amino)azetidin-1-yl]pyridin-3-yl]-4-oxoquinoline-3-carboxylic acid] | 1000 to 10000 | 
2 | O=C(O)c1cn(-c2cc(F)ccc2F)c2cc(N3CCC[C@@H]3COc3ccccn3)c(F)cc2c1=O [Compound 143, (R)-1-(2,5-difluorophenyl)-6-fluoro-4-oxo-7-(2-((pyridin-2-yloxy)methyl)pyrrolidin-1-yl)-1,4-dihydro-quinoline-3-carboxylic acid] | 1000 to 10000 | 
3 | CC(=O)N1CC(n2cc(C(=O)O)c(=O)c3cc(Cl)c(N4CCC[C@@H]4COc4ncccc4C)cc32)C1 [Example 36, 1-(1-Acetylazetidin-3-yl)-6-chloro-7-[(2R)-2-{[(3-methylpyridin-2-yl)oxy]methyl}pyrrolidin-1-yl]-4-oxo-1,4-dihydroquinoline-3-carboxylic acid] |  | IC50 [2]: 1000 to 10000 nM
4 | CN(C)C1CN(c2ccc(-n3cc(C(=O)O)c(=O)c4cc(F)c(N5C[C@@H](c6cccnc6)C[C@@H]5COc5ncccc5Cl)cc43)cn2)C1 [Example 62, 7-[(2R,4R)-2-[[(3-chloropyridin-2-yl)oxy]methyl]-4-(pyridin-3-yl)pyrrolidin-1-yl]-1-[6-[3-(dimethylamino)azetidin-1-yl]pyridin-3-yl]-6-fluoro-4-oxoquinoline-3-carboxylic acid] |  | IC50 [2]: ≤ 1000 nM
5 | CN(C)C1CN(c2ccc(-n3cc(C(=O)O)c(=O)c4cc(F)c(N5CCC[C@]5(C)COc5ncccc5Cl)c(F)c43)cn2)C1 [Example 634, (R)-7-(2-(((3-chloropyridin-2-yl)oxy)methyl)-2-methylpyrrolidin-1-yl)-1-(6-(3-(dimethylamino)azetidin-1-yl)pyridin-3-yl)-6,8-difluoro-4-oxo-1,4-dihydroquinoline-3-carboxylic acid] |  | IC50 [3]: ≤ 1000 nM
6 | CC1(n2cc(C(=O)O)c(=O)c3cc(Cl)c(N4CCC[C@@H]4CN4CCOCC4)cc32)CC1 [Compound 114, (R)-6-chloro-1-(1-methylcyclo-propyl)-7-(2-(morpholino-methyl)pyrrolidin-1-yl)-4-oxo-1,4-dihydro-quinoline-3-carboxylic acid] | > 50000 | 
7 | COc1ccc(Cl)c(OC[C@H]2CCCN2c2cc3c(cc2C)c(=O)c(C(=O)O)cn3-c2ccc(N3CC(N(C)C)C3)nc2)n1 [Compound 206, (R)-7-(2-(((3-chloro-6-methoxy-pyridin-2-yl)oxy)methyl)pyrrolidin-1-yl)-1-(6-(3-(dimethyl-amino)azetidin-1-yl)pyridin-3-yl)-6-methyl-4-oxo-1,4-dihydro-quinoline-3-carboxylic acid] | ≤ 1000 | 
8 | O=C(O)c1cn(-c2ccc(N3CCC3)nc2)c2cc(N3C(=O)CC[C@@H]3COc3ccccn3)c(Cl)cc2c1=O [Compound 287, (R)-1-(6-(azetidin-1-yl)pyridin-3-yl)-6-chloro-4-oxo-7-(2-oxo-5-((pyridin-2-yloxy)methyl)pyrrolidin-1-yl)-1,4-dihydro-quinoline-3-carboxylic acid] | 10000 to 50000 | 
9 | Nc1ncc(-n2cc(C(=O)O)c(=O)c3cc(Cl)c(N4CCC[C@@H]4COc4ncccc4Cl)cc32)cn1 [Example 555, (R)-1-(2-aminopyrimidin-5-yl)-6-chloro-7-(2-(((3-chloropyridin-2-yl)oxy)methyl)pyrrolidin-1-yl)-4-oxo-1,4-dihydroquinoline-3-carboxylic acid] |  | IC50 [3]: ≤ 1000 nM
10 | CN(C)C1CN(c2ccc(-n3cc(C(=O)O)c(=O)c4cc(Cl)c(N5CC(c6cnn(C)c6)C[C@@H]5COc5ncccc5Cl)cc43)cn2)C1 (mixture of isomers) [Compound 188, rac-6-chloro-7-((2R)-2-(((3-chloropyridin-2-yl)oxy)methyl)-4-(1-methyl-1H-pyrazol-4-yl)pyrrolidin-1-yl)-1-(6-(3-(dimethyl-amino)azetidin-1-yl)pyridin-3-yl)-4-oxo-1,4-dihydro-quinoline-3-carboxylic acid] | ≤ 1000 | 

Now from value to compound, other results behind:

Row | IC50 [1] [nM] | Structure (SMILES) | also measured
11 | ≤ 1000 | COc1ccc(Cl)c(OC[C@H]2C[C@H]3C[C@H]3N2c2cc3c(cc2F)c(=O)c(C(=O)O)cn3-c2ccc(N(C)C)nc2)n1 [Compound 340, 7-[(1R,3R,5R)-3-{[(3-Chloro-6-methoxy-pyridin-2-yl)oxy]methyl}-2-azabicyclo [3.1.0]hexan-2-yl]-1-[6-(dimethyl-amino)pyridin-3-yl]-6-fluoro-4-oxoquinoline-3-carboxylic acid] | 
12 | ≤ 1000 | CN(C)C1CN(c2ccc(-n3cc(C(=O)O)c(=O)c4cc(Cl)c(N5CC(F)(F)C[C@@H]5COc5ncccc5Cl)cc43)cn2)C1 (racemic) [Compound 305, rac-(R)-6-chloro-7-(2-(((3-chloropyridin-2-yl)oxy)methyl)-4,4-difluoro-pyrrolidin-1-yl)-1-(6-(3-(dimethyl-amino)azetidin-1-yl)pyridin-3-yl)-4-oxo-1,4-dihydro-quinoline-3-carboxylic acid] | 
13 | ≤ 1000 | COc1ccc(Cl)c(OC[C@H]2C[C@@H]3C[C@@H]3N2c2cc3c(cc2F)c(=O)c(C(=O)O)cn3-c2ccc(N3CC(N(C)C)C3)nc2)n1 [Compound 201, 7-((1S,3R,5S)-3-(((3-chloro-6-methoxy-pyridin-2-yl)oxy)methyl)-2-azabicyclo [3.1.0]hexan-2-yl)-1-(6-(3-(dimethyl-amino)azetidin-1-yl)pyridin-3-yl)-6-fluoro-4-oxo-1,4-dihydro-quinoline-3-carboxylic acid] | 
14 | ≤ 1000 | CN(C)C1CN(c2ccc(-n3cc(C(=O)O)c(=O)c4cc(Cl)c(N5[C@@H](COc6nc(OC7CC7)ccc6Cl)C[C@H]6C[C@H]65)cc43)cn2)C1 [Compound 270, 6-chloro-7-((1R,3R,5R)-3-(((3-chloro-6-cycloprop-oxypyridin-2-yl)oxy)methyl)-2-azabicyclo [3.1.0]hexan-2-yl)-1-(6-(3-(dimethyl-amino)azetidin-1-yl)pyridin-3-yl)-4-oxo-1,4-dihydro-quinoline-3-carboxylic acid] | 
15 | ≤ 1000 | CN(C)C1CN(c2ccc(-n3cc(C(=O)O)c(=O)c4cc(C#N)c(N5C6CCC5(COc5ncccc5F)CC6)cc43)cn2)C1 [Compound 181, 6-cyano-1-(6-(3-(dimethyl-amino)azetidin-1-yl)pyridin-3-yl)-7-(1-(((3-fluoropyridin-2-yl)oxy)methyl)-7-azabicyclo [2.2.1]heptan-7-yl)-4-oxo-1,4-dihydro-quinoline-3-carboxylic acid] | 
16 | ≤ 1000 | COc1ccc(Cl)c(OC[C@H]2C[C@@H](c3cccnc3)CN2c2cc3c(cc2Cl)c(=O)c(C(=O)O)cn3-c2ccc(N3CC(N(C)C)C3)nc2)n1 [Compound 345, 6-chloro-7-((2R,4S)-2-(((3-chloro-6-methoxy-pyridin-2-yl)oxy)methyl)-4-(pyridin-3-yl)pyrrolidin-1-yl)-1-(6-(3-(dimethyl-amino)azetidin-1-yl)pyridin-3-yl)-4-oxo-1,4-dihydro-quinoline-3-carboxylic acid] | 
17 | ≤ 1000 | CN(C)C1CN(c2ccc(-n3cc(C(=O)O)c(=O)c4cc(F)c(N5C[C@@H](c6cccnc6)C[C@@H]5COc5ncccc5Cl)cc43)cn2)C1 (single isomer, unassigned) [Compound 329] | 

Reference: patent US12662491B2 (Redona Therapeutics, Inc., priority 2020, dated 2026)
